Measured values from patent publication EP4417602A1, “SUBSTITUTED PYRAZOLE CARBOXAMIDES, SALTS THEREOF AND THEIR USE AS HERBICIDALLY ACTIVE SUBSTANCES” (Bayer AG, priority 2023, dated 2024).

tested on: LOLRI; assay: A. Herbicidal pre-emergence action on harmful plants (Tables A); format: in vivo, Lolium rigidum; details: application rate 320 g/ha; visual grading after ca. 3 weeks vs untreated controls; 100% = plants have died off, 0% = as control plants
Excerpt: (§1) Seeds of mono- and dicotyledonous weed plants were sown in plastic pots (double sowings with one species of mono- and one species of dicotyledonous weed plants per pot), in sandy loam, and covered with soil. The compounds according to the invention, formulated in the form of wettable powders (WP) or as emulsifiable concentrates (EC), were applied to the surface of the covering soil as aqueous suspension or emulsion, with the addition of 0.5% of an additive, at an application rate of 6001 of water per hectare (converted). Following treatment, the pots were placed in a greenhouse and kept under optimum growth conditions for the test plants. The visual grading of the damage to the test plants was carried out after ca. 3 weeks in comparison to untreated controls (herbicidal effect in percent (%): 100% effect = plants have died off, 0% effect = as control plants). Tables A1 to A12, below, show the effects of selected compounds of the general formula (I) according to table 1 on various harmful plants and an application rate corresponding to 1280 g/ha or below obtained by the experimental procedure mentioned above. Table A1: pre-emergence activity at 1280g/ha against ABUTH in %

Structure (SMILES) | pre-emergence activity against LOLRI [%]
COCc1nn(C)cc1C(=O)N1CCCC1Cc1ccccc1OC (racemic) [Example I-014] | 90
COCc1nn(C(=O)NC2CC2)cc1C(=O)N1CCCC1Cc1ccccc1F (racemic) [Example I-036] | 90

same assay, conditions: application rate 1280 g/ha; visual grading after ca. 3 weeks vs untreated controls; 100% = plants have died off, 0% = as control plants

Structure (SMILES) | pre-emergence activity against LOLRI [%]
COCc1nn(C)cc1C(=O)N1CCCC1Cc1ccccc1OC (racemic) [Example I-014] | 100
COCc1nn(C)cc1C(=O)N1CCCC1Cc1ncccc1F (racemic) [Example I-015] | 100
COCc1nn(C(=O)NC2CC2)cc1C(=O)N1CCCC1Cc1ccccc1F (racemic) [Example I-036] | 90
COCc1c(C(=O)N2CCCC2Cc2ccc(F)cc2F)cnn1C (racemic) [Example I-158] | 90
COCc1c(C(=O)N2CCCC2Cc2cc(F)ccc2F)cnn1C (single isomer, unassigned) [Example I-188] | 100

tested on: POAAN; assay: as above; format: in vivo, Poa annua; details: application rate 80 g/ha; Table A7c
Excerpt: as §1

Structure (SMILES) | pre-emergence activity against POAAN [%]
COCc1nn(C)cc1C(=O)N1CCCC1Cc1ncccc1F (racemic) [Example I-015] | 100
COCc1nn(C(=O)NC2CC2)cc1C(=O)N1CCCC1Cc1ccccc1F (racemic) [Example I-036] | 90
COCc1c(C(=O)N2CCCC2Cc2cc(F)ccc2F)cnn1C (single isomer, unassigned) [Example I-188] | 90

same assay, conditions: application rate 320 g/ha; Table A7b

Structure (SMILES) | pre-emergence activity against POAAN [%]
COCc1nn(C)cc1C(=O)N1CCCC1Cc1ccccc1OC (racemic) [Example I-014] | 100
COCc1nn(C)cc1C(=O)N1CCCC1Cc1ncccc1F (racemic) [Example I-015] | 100
COCc1nn(C)cc1C(=O)N1CCCC1Cc1ccc(Cl)cc1Cl (racemic) [Example I-016] | 100
COCc1nn(C(=O)NC2CC2)cc1C(=O)N1CCCC1Cc1ccccc1F (racemic) [Example I-036] | 90
COCc1c(C(=O)N2CCCC2Cc2ccc(F)cc2F)cnn1C (racemic) [Example I-158] | 100
COCc1c(C(=O)N2CCCC2Cc2cc(F)ccc2F)cnn1C (single isomer, unassigned) [Example I-188] | 100

same assay, conditions: application rate 1280 g/ha; visual grading after ca. 3 weeks vs untreated controls; 100% = plants have died off, 0% = as control plants

Structure (SMILES) | pre-emergence activity against POAAN [%]
COCc1nn(C)cc1C(=O)N1CCCC1Cc1ccccc1OC (racemic) [Example I-014] | 100
COCc1nn(C)cc1C(=O)N1CCCC1Cc1ncccc1F (racemic) [Example I-015] | 100
COCc1nn(C)cc1C(=O)N1CCCC1Cc1ccc(Cl)cc1Cl (racemic) [Example I-016] | 100
COCc1nn(C(=O)NC2CC2)cc1C(=O)N1CCCC1Cc1ccccc1F (racemic) [Example I-036] | 100
COCc1c(C(=O)N2CCCC2Cc2ccc(F)cc2F)cnn1C (racemic) [Example I-158] | 100
COCc1c(C(=O)N2CCCC2Cc2cc(F)ccc2F)cnn1C (single isomer, unassigned) [Example I-188] | 100

tested on: ECHCG; assay: B. Herbicidal post-emergence action on harmful plants (Tables B); format: in vivo, Echinochloa crus-galli; details: application rate 1280 g/ha; Table B2a
Procedure: (§2) Seeds of mono- and dicotyledonous weed plants were placed in plastic pots in sandy loam soil (doubly sown with in each case one species of mono- or dicotyledonous weed plants per pot), covered with soil and cultivated in a greenhouse under controlled growth conditions. 2 to 3 weeks after sowing, the test plants were treated at the one-leaf stage. The compounds of the invention, formulated in the form of wettable powders (WP) or as emulsion concentrates (EC), were applied onto the green parts of the plants as aqueous suspension or emulsion with addition of 0.5% additive at a water application rate of 600 liters per hectare (converted). After the test plants had been kept in the greenhouse under optimum growth conditions for about 3 weeks, the activity of the preparations was rated visually in comparison to untreated controls. For example, 100% activity = the plants have died, 0% activity = like control plants. Tables B1 to B12, below, show the effects of selected compounds of the general formula (I) according to table 1 on various harmful plants and an application rate corresponding to 1280 g/ha or below obtained by the experimental procedure mentioned above. Table B1a: post-emergence activity at 1280g/ha against ABUTH in %

Structure (SMILES) | post-emergence activity against ECHCG [%]
COCc1nn(C)cc1C(=O)N1CCCC1Cc1ccc(Cl)cc1Cl (racemic) [Example I-016] | 90
COCc1c(C(=O)N2CCCC2Cc2ccc(F)cc2F)cnn1C (racemic) [Example I-158] | 90

tested on: STEME; assay: A. Herbicidal pre-emergence action on harmful plants (Tables A); format: in vivo, Stellaria media; details: application rate 320 g/ha; visual grading after ca. 3 weeks vs untreated controls; 100% = plants have died off, 0% = as control plants
Excerpt: as §1

Structure (SMILES) | pre-emergence activity against STEME [%]
COCc1nn(C(=O)NC2CC2)cc1C(=O)N1CCCC1Cc1ccccc1F (racemic) [Example I-036] | 90

same assay, conditions: application rate 1280 g/ha; visual grading after ca. 3 weeks vs untreated controls; 100% = plants have died off, 0% = as control plants

Structure (SMILES) | pre-emergence activity against STEME [%]
COCc1nn(C(=O)NC2CC2)cc1C(=O)N1CCCC1Cc1ccccc1F (racemic) [Example I-036] | 90
COCc1c(C(=O)N2CCCC2Cc2ccc(F)cc2F)cnn1C (racemic) [Example I-158] | 90
COCc1c(C(=O)N2CCCC2Cc2cc(F)ccc2F)cnn1C (single isomer, unassigned) [Example I-188] | 90

tested on: POAAN; assay: B. Herbicidal post-emergence action on harmful plants (Tables B); format: in vivo, Poa annua; details: application rate 320 g/ha; Table B7b
Procedure: as §2

Structure (SMILES) | post-emergence activity against POAAN [%]
COCc1nn(C)cc1C(=O)N1CCCC1Cc1ncccc1F (racemic) [Example I-015] | 90

same assay, conditions: application rate 1280 g/ha; Table B7a

Structure (SMILES) | post-emergence activity against POAAN [%]
COCc1nn(C)cc1C(=O)N1CCCC1Cc1ncccc1F (racemic) [Example I-015] | 90
COCc1nn(C)cc1C(=O)N1CCCC1Cc1ccc(Cl)cc1Cl (racemic) [Example I-016] | 90
COCc1c(C(=O)N2CCCC2Cc2ccc(F)cc2F)cnn1C (racemic) [Example I-158] | 100
COCc1c(C(=O)N2CCCC2Cc2cc(F)ccc2F)cnn1C (single isomer, unassigned) [Example I-188] | 90

tested on: SETVI; assay: A. Herbicidal pre-emergence action on harmful plants (Tables A); format: in vivo, Setaria viridis; details: application rate 80 g/ha; visual grading after ca. 3 weeks vs untreated controls; 100% = plants have died off, 0% = as control plants
Excerpt: as §1

Structure (SMILES) | pre-emergence activity against SETVI [%]
COCc1c(C(=O)N2CCCC2Cc2cc(F)ccc2F)cnn1C (single isomer, unassigned) [Example I-188] | 90

same assay, conditions: application rate 320 g/ha; visual grading after ca. 3 weeks vs untreated controls; 100% = plants have died off, 0% = as control plants

Structure (SMILES) | pre-emergence activity against SETVI [%]
COCc1c(C(=O)N2CCCC2Cc2cc(F)ccc2F)cnn1C (single isomer, unassigned) [Example I-188] | 100

same assay, conditions: application rate 1280 g/ha; visual grading after ca. 3 weeks vs untreated controls; 100% = plants have died off, 0% = as control plants

Structure (SMILES) | pre-emergence activity against SETVI [%]
COCc1nn(C)cc1C(=O)N1CCCC1Cc1ccccc1OC (racemic) [Example I-014] | 90
COCc1nn(C)cc1C(=O)N1CCCC1Cc1ncccc1F (racemic) [Example I-015] | 90
COCc1nn(C)cc1C(=O)N1CCCC1Cc1ccc(Cl)cc1Cl (racemic) [Example I-016] | 90
COCc1nn(C(=O)NC2CC2)cc1C(=O)N1CCCC1Cc1ccccc1F (racemic) [Example I-036] | 90
COCc1c(C(=O)N2CCCC2Cc2ccc(F)cc2F)cnn1C (racemic) [Example I-158] | 90
COCc1c(C(=O)N2CCCC2Cc2cc(F)ccc2F)cnn1C (single isomer, unassigned) [Example I-188] | 100

tested on: ECHCG; assay: as above; format: in vivo, Echinochloa crus-galli; details: application rate 320 g/ha; visual grading after ca. 3 weeks vs untreated controls; 100% = plants have died off, 0% = as control plants
Excerpt: as §1

Structure (SMILES) | pre-emergence activity against ECHCG [%]
COCc1nn(C)cc1C(=O)N1CCCC1Cc1ccccc1OC (racemic) [Example I-014] | 90
COCc1nn(C)cc1C(=O)N1CCCC1Cc1ncccc1F (racemic) [Example I-015] | 90
COCc1nn(C)cc1C(=O)N1CCCC1Cc1ccc(Cl)cc1Cl (racemic) [Example I-016] | 90
COCc1nn(C(=O)NC2CC2)cc1C(=O)N1CCCC1Cc1ccccc1F (racemic) [Example I-036] | 90
COCc1c(C(=O)N2CCCC2Cc2cc(F)ccc2F)cnn1C (single isomer, unassigned) [Example I-188] | 90

same assay, conditions: application rate 1280 g/ha; visual grading after ca. 3 weeks vs untreated controls; 100% = plants have died off, 0% = as control plants

Structure (SMILES) | pre-emergence activity against ECHCG [%]
COCc1nn(C)cc1C(=O)N1CCCC1Cc1ccccc1OC (racemic) [Example I-014] | 100
COCc1nn(C)cc1C(=O)N1CCCC1Cc1ncccc1F (racemic) [Example I-015] | 100
COCc1nn(C)cc1C(=O)N1CCCC1Cc1ccc(Cl)cc1Cl (racemic) [Example I-016] | 100
COCc1nn(C(=O)NC2CC2)cc1C(=O)N1CCCC1Cc1ccccc1F (racemic) [Example I-036] | 100
COCc1c(C(=O)N2CCCC2Cc2ccc(F)cc2F)cnn1C (racemic) [Example I-158] | 100
COCc1c(C(=O)N2CCCC2Cc2cc(F)ccc2F)cnn1C (single isomer, unassigned) [Example I-188] | 100

tested on: DIGSA; assay: as above; format: in vivo, Digitaria sanguinalis; details: application rate 320 g/ha; Table A12b
Excerpt: as §1

Structure (SMILES) | pre-emergence activity against DIGSA [%]
COCc1nn(C(=O)NC2CC2)cc1C(=O)N1CCCC1Cc1ccccc1F (racemic) [Example I-036] | 90
COCc1c(C(=O)N2CCCC2Cc2cc(F)ccc2F)cnn1C (single isomer, unassigned) [Example I-188] | 90

same assay, conditions: application rate 1280 g/ha; Table A12a

Structure (SMILES) | pre-emergence activity against DIGSA [%]
COCc1nn(C(=O)NC2CC2)cc1C(=O)N1CCCC1Cc1ccccc1F (racemic) [Example I-036] | 100
COCc1c(C(=O)N2CCCC2Cc2ccc(F)cc2F)cnn1C (racemic) [Example I-158] | 100
COCc1c(C(=O)N2CCCC2Cc2cc(F)ccc2F)cnn1C (single isomer, unassigned) [Example I-188] | 100

tested on: VERPE; assay: B. Herbicidal post-emergence action on harmful plants (Tables B); format: in vivo, Veronica persica; details: application rate 1280 g/ha; Table B11a
Procedure: as §2

Structure (SMILES) | post-emergence activity against VERPE [%]
COCc1nn(C)cc1C(=O)N1CCCC1Cc1ccccc1OC (racemic) [Example I-014] | 90
COCc1nn(C)cc1C(=O)N1CCCC1Cc1ncccc1F (racemic) [Example I-015] | 90
COCc1nn(C(=O)NC2CC2)cc1C(=O)N1CCCC1Cc1ccccc1F (racemic) [Example I-036] | 90

tested on: ALOMY; assay: A. Herbicidal pre-emergence action on harmful plants (Tables A); format: in vivo, Alopecurus myosuroides; details: application rate 320 g/ha; Table A9b
Excerpt: as §1

Structure (SMILES) | pre-emergence activity against ALOMY [%]
COCc1c(C(=O)N2CCCC2Cc2ccc(F)cc2F)cnn1C (racemic) [Example I-158] | 100

same assay, conditions: application rate 1280 g/ha; Table A9a

Structure (SMILES) | pre-emergence activity against ALOMY [%]
COCc1nn(C)cc1C(=O)N1CCCC1Cc1ccccc1OC (racemic) [Example I-014] | 90
COCc1nn(C)cc1C(=O)N1CCCC1Cc1ncccc1F (racemic) [Example I-015] | 90
COCc1nn(C(=O)NC2CC2)cc1C(=O)N1CCCC1Cc1ccccc1F (racemic) [Example I-036] | 90
COCc1c(C(=O)N2CCCC2Cc2ccc(F)cc2F)cnn1C (racemic) [Example I-158] | 100
COCc1c(C(=O)N2CCCC2Cc2cc(F)ccc2F)cnn1C (single isomer, unassigned) [Example I-188] | 90

tested on: MATIN; assay: as above; format: in vivo, Matricaria inodora; details: application rate 1280 g/ha; visual grading after ca. 3 weeks vs untreated controls; 100% = plants have died off, 0% = as control plants
Excerpt: as §1

Structure (SMILES) | pre-emergence activity against MATIN [%]
COCc1nn(C(=O)NC2CC2)cc1C(=O)N1CCCC1Cc1ccccc1F (racemic) [Example I-036] | 90
COCc1c(C(=O)N2CCCC2Cc2ccc(F)cc2F)cnn1C (racemic) [Example I-158] | 90
COCc1c(C(=O)N2CCCC2Cc2cc(F)ccc2F)cnn1C (single isomer, unassigned) [Example I-188] | 90
